A melting point compilation (Tetko et al.; mined from patent text by program, amines drawn as free bases though some values may be those of a salt)

First: O=CNNc1ccccc1
Second: CC1OC(=O)C(c2ccccc2)OC1=O (stereo unspecified)
The melting point of the first is lower: 138 to 143 °C for the first, 153 to 156 °C for the second.

Compared with Cc1ccc(Cl)c(C)c1NC(=O)N=C1NC(=O)CN1C, Cc1ccc(Cl)c(NS(=O)(=O)c2nc(C)n(-c3ncccn3)n2)c1Cl is higher in melting point: 140 to 142 °C for the first, 214 to 216 °C for the second.

First: CC(C)Cn1c(CNC(=O)OC(C)(C)C)c(-c2ccccc2)c2cc(OC(C)(C)C(=O)O)ccc2c1=O
Second: CC(C)C[C@@H](C(=O)N[C@@H](C(C)C)[C@H](O)c1c(-c2ccccc2)c1=O)N(C)C(=O)OCc1ccccc1
The melting point of the first is higher: 219 to 220 °C for the first, 112 °C for the second.

First: CC(=O)c1ccc2[nH]c(C(=O)c3ccc(Cl)cc3)c(CC(=O)O)c2c1
Second: O=C(N[C@@H](Cc1c[nH]c2ccccc12)C(=O)O)c1cccc(Cl)c1
The melting point of the first is higher: 225 °C for the first, 160 to 161 °C for the second.

First: O=C(O)CCCc1cc2nc(C(F)(F)F)ccc2n1S(=O)(=O)c1cccc2ccccc12
Second: CN(C)c1ccccc1CNC(=O)C1Cc2ccccc2N1S(=O)(=O)c1ccc(-c2cccc(C(F)(F)F)c2)cc1 (stereo unspecified)
The melting point of the first is higher: 195 °C for the first, 66 °C for the second.

First: NC(=O)Cc1c(-c2ccccc2)nn(-c2ccccc2)c1-c1ccccc1
Second: BrCCNC(c1ccccc1)(c1ccccc1)c1ccccc1
The melting point of the first is higher: 123 to 124 °C for the first, 108 to 109 °C for the second.

Compared with CC(C)(C)C1=CC(c2cccc([N+](=O)[O-])c2)C2=C(CCCC2=O)N1 (stereo unspecified), O=C1C(=O)c2ccccc2C2=C1SCC1(CCN(C(=O)c3cccc([N+](=O)[O-])c3)CC1)O2 is lower in melting point: 180 to 182 °C for the first, 160 to 162 °C for the second.

First: CCOC(=O)CC1(O)c2ccccc2C=Cc2ccccc21
Second: O=C(O)c1ccc(OCc2ccccc2CCc2ccccc2)cc1
The melting point of the first is lower: 93 to 99 °C for the first, 178 to 180 °C for the second.

First: C=CCc1ccc(C[C@H](NC(=O)OC(C)(C)C)C(=O)OC)cc1
Second: CC(C)(C)OC(=O)N[C@@H](Cc1ccccc1)[C@H](O)CNC1(c2cccc(C(F)(F)F)c2)CC1
The melting point of the first is lower: 56 to 59 °C for the first, 124 °C for the second.

Compared with C[C@H](NC(=O)C[C@](O)(CC(C)(C)O)c1ccccc1)c1ccc(Br)cc1, CSCC(=O)[C@H](Cc1ccc(Cl)cc1)NC(=O)[C@H](CC(C)C)NC(=O)OCc1ccccc1 is lower in melting point: 150 to 152 °C for the first, 119 to 121 °C for the second.

First: O=C1NC(=O)C(=Cc2ccc(OCCc3ccccc3)cc2)S1
Second: CSc1noc(-c2ccc(OCCOc3ccccc3)cc2)c1C#N
The melting point of the first is higher: 185 to 187 °C for the first, 128 to 131 °C for the second.

First: FC(F)(F)CSc1nc(-c2ccccc2)c(-c2ccccc2)[nH]1
Second: O=C(NNS(=O)(=O)c1ccccc1)c1ccccc1CCc1ccccc1
The melting point of the first is higher: 186 to 187 °C for the first, 158 to 159 °C for the second.

First: CC(=O)NC1CC(=O)CC(=O)C1
Second: COC(=O)c1cc2c(nc1C)C(=O)CCC2
The melting point of the first is higher: 181 to 183 °C for the first, 180 to 181 °C for the second.

First: COc1ccccc1Sc1ccc(C=O)c(Cl)c1Cl
Second: COc1ccccc1-n1c(Cn2cnc3c(N)ncnc32)nc2cccc(Cl)c2c1=O
The melting point of the first is lower: 137 to 139 °C for the first, 257 °C for the second.

First: CCCCC(=NNC(=O)OC(C)(C)C)c1ccncc1
Second: CC(C)(C)OC(=O)N1CC(CC(=O)O)c2ccccc21 (single isomer, unassigned; (+))
The melting point of the first is higher: 156 °C for the first, 137 to 138 °C for the second.

First: CCCCOC(=O)c1ccc(C(F)(F)F)cc1Cl
Second: CCCCOC(=O)c1nc(Cl)c2cc(OC(C)C)ccc2c1O
The melting point of the first is higher: 90 °C for the first, 60 to 62 °C for the second.

Going from OCC12CC3CC(CC(C3)C1Br)C2 (stereo unspecified) to Cc1nc2cc(-c3ccc(C=C4SC(=O)NC4=O)cn3)cc(C34CC5CC(CC(C5)C3)C4)c2o1, the melting point rises from 138 °C to greater than 360 °C.

First: CCOC(=O)CCCNC(=O)c1n[nH]cc1NC(=O)c1ccccn1
Second: CC(C)C(NC(=O)C(Cc1ccccc1)NC(=O)OCc1ccccc1)C(=O)Nc1n[nH]c(=S)s1 (stereo unspecified)
The melting point of the first is higher: 179 to 180 °C for the first, 170 to 174 °C for the second.

First: Nc1cc(C(F)(F)F)ccc1C=C1NC(=S)NC1=O
Second: CCOC(=O)/C=C/c1cccc(C(=O)c2ccc(C(F)(F)F)cc2)n1
The melting point of the first is higher: 240 °C for the first, 66 to 68 °C for the second.

First: O=C1CCCCCCC1F (stereo unspecified)
Second: CS(=O)(=O)c1ccc(-c2cc(/C=C/CO)nn2C2CCCCC2)cc1
The melting point of the first is lower: 48.1 to 49.8 °C for the first, 121 °C for the second.

First: Cn1nc(-c2ccncc2)c2ccccc2c1=O
Second: Cc1ccc(N2C(=O)c3ccccc3C2=O)nn1
The melting point of the first is lower: 173 to 174 °C for the first, 214 °C for the second.

First: C=CC1CCC2C3CCC4=CC(O)C=CC4(C)C3CCC12C (stereo unspecified)
Second: CC1(C)C2CCC1(CNC(=O)CBr)CC2
The melting point of the first is higher: 98 to 128 °C for the first, 89 °C for the second.

Compared with Cc1c(Cc2cccc(C(F)(F)F)c2)oc2c(-c3cccc(C(=O)NCC(N)=O)c3)cccc12, Cc1cc(-c2ccc(C(F)(F)F)cc2)cc(-c2ccnc(-c3cccc(N)c3)n2)n1 is lower in melting point: 194 to 195 °C for the first, 167 °C for the second.

First: O=C1CCCN1C(c1ccccc1Cl)N1CCN(c2ncccn2)CC1 (stereo unspecified)
Second: N#Cc1cccnc1N1CCN(CNC(=O)c2ccccc2Cl)CC1
The melting point of the first is higher: 166 to 177 °C for the first, 137 to 139 °C for the second.

Compared with CCC(C(=O)O)c1cccc(C(=O)c2cc3ccsc3s2)c1 (stereo unspecified), COC(=O)C1Cc2sc(N)c(C(=O)c3ccccc3Cl)c2C1 (stereo unspecified) is lower in melting point: 143 °C for the first, 120 to 125 °C for the second.

Compared with COc1nc2ccccc2cc1NC(=O)N1CCN(c2cccc(Cl)c2)CC1, C[C@]12CCC(=O)N[C@@H]1CCc1cc(-c3cccc4ccccc34)ccc12 is higher in melting point: 97 to 98 °C for the first, 247 to 248 °C for the second.

First: Cc1cnc(C)n1CC(O)c1ccc(-c2ccc(N3C[C@H](Cn4ccnn4)OC3=O)cc2F)cn1 (stereo partly specified)
Second: CC1CN(c2ccc(N3CC(CNc4nccs4)OC3=O)cc2F)CCC1=CC#N (stereo unspecified)
The melting point of the first is higher: 195 to 200 °C for the first, 75 to 77 °C for the second.

Compared with CC(C)(CNc1ccnc2cc(Cl)ccc12)NCc1ccc(F)c(Cl)c1, CCc1ccc2nc(Cl)nc(Nc3ccccc3C)c2c1 is higher in melting point: 164 to 165 °C for the first, 177 to 179 °C for the second.

Compared with CCN1C(=O)CC2(CC(=O)N(Cc3ccccc3)C2)C1=O (stereo unspecified), O=C(NCCN1CCC2(CC1)C(=O)NCN2c1ccccc1)c1ccc(F)cc1[N+](=O)[O-] is higher in melting point: 125 to 126 °C for the first, 160 °C for the second.

Compared with CCN(CC)CC#CC(=O)c1ccc(C)cc1, CCOCC(=O)Nc1ccc(C2=NNC(=O)CC2C)cc1 (stereo unspecified) is higher in melting point: 115 to 117 °C for the first, 195 to 197 °C for the second.

Compared with CCCCCCCCC(=O)Nc1cccc([N+](=O)[O-])c1, CCC(CCCCCCCCC(C)(C)CO)N1C(=O)c2cccc([N+](=O)[O-])c2C1=O (stereo unspecified) is higher in melting point: 63 to 63.5 °C for the first, 66 to 68 °C for the second.

Compared with CC(C(O)C=Cc1ccc(Cl)cc1)n1cncn1 (stereo unspecified), Nc1ccc(-c2cnn3c(O)ncnc23)cc1 is higher in melting point: 117 to 118 °C for the first, greater than 300 °C for the second.

First: COc1ccccc1CNCc1c(-c2ccccc2)c2cc(C)c(C)cc2c(=O)n1C
Second: CCn1c2ccccc2c2c3c(c(-c4ccccc4Cl)cc21)C(=O)NC3O (stereo unspecified)
The melting point of the first is lower: 159 to 160 °C for the first, 225 to 228 °C for the second.

First: N#CC(N)=C(C#N)N=Cc1cnn(-c2ncc(C(F)(F)F)cc2Cl)n1
Second: NC(=O)N1C(=O)C(=C(OC(=O)C=Cc2ccccc2)c2cccs2)c2cc(F)c(Cl)cc21
The melting point of the first is higher: 220 to 222 °C for the first, 214 to 215 °C for the second.

First: CN(C)c1nccc2c1nnn2Cc1ccccc1F
Second: CCOC(=O)c1cc2n(c1)CNc1ccccc1-2
The melting point of the first is higher: 248 to 252 °C for the first, 140 to 141 °C for the second.

First: O=C(NCCc1ccccc1CO)c1ccc([N+](=O)[O-])cc1
Second: O=C(NCCO)c1cncc(-c2cccc3cc(Cc4cc(F)cc(Cl)c4)sc23)c1
The melting point of the first is higher: 137 to 138 °C for the first, 126 to 127 °C for the second.

First: COc1cc(-c2oc3ccc(CC(=O)NC(CC(C)C)C(N)=O)cc3c2SC)ccc1O (stereo unspecified)
Second: COC(=O)C1(C(C)C)Oc2c(OC)cccc2C1=O (stereo unspecified)
The melting point of the first is higher: 220 °C for the first, 87 to 88 °C for the second.

First: OCCCc1ccc(Nc2c(-c3nnc(NCCN4CCOCC4)o3)ccc(F)c2F)c(F)c1
Second: O=c1[nH]ncc(NCCN2CCN(c3cccc4c3OCCO4)CC2)c1Cl
The melting point of the first is lower: 102 to 106 °C for the first, 217 to 219 °C for the second.

Compared with COc1ccc(C=Cc2nc3c(OC)c(C)c(C)c(OC)c3[nH]2)cc1OC, COc1cc2cc3ncc(C#N)c(Nc4ccc(F)c(Cl)c4)c3cc2cc1OC is higher in melting point: 116 to 119 °C for the first, greater than 280 °C for the second.

First: Cc1c2c(c(C)n1-c1ccccc1)C(C)(C)OC2(C)C
Second: CC(C)(C)c1cc(Nc2ccccc2C#N)cc(C(C)(C)C)c1O
The melting point of the first is lower: 113 to 116 °C for the first, 172 °C for the second.

Compared with CNc1ccc2cnc(S(C)=O)nc2n1 (stereo unspecified), CSc1nc(NC(=O)NS(=O)(=O)c2ccccc2C(=O)OC(C)C)nn1C is higher in melting point: 185 °C for the first, 192 to 194 °C for the second.

First: CCOC(=O)c1ncc2[nH]c3cccc(Oc4ccc(N)cc4)c3c2c1COC
Second: COC(=O)C(C)(N)Cc1c[nH]c2ccc(OCC3CC3)cc12 (racemic)
The melting point of the first is higher: 222 to 224 °C for the first, 172 °C for the second.

First: COC(CNc1ccc(C(O)(C(F)(F)F)C(F)(F)F)cc1)OC
Second: COc1ccc(CCl)c(F)c1OC
The melting point of the first is higher: 72 to 74 °C for the first, 44.5 to 47.5 °C for the second.

Compared with Cc1nsnc1-c1cccnc1, NC(=O)n1nc(-c2ccccc2)cc1N is higher in melting point: 55 to 57 °C for the first, 255 °C for the second.

First: N#Cc1ccc(N2CCCCC2)c2ccsc12
Second: CC(C)n1nc(-c2c(-c3ccccc3)nc(N)nc2N2CCCCC2)ccc1=O
The melting point of the first is lower: 99 to 100 °C for the first, 221 to 223 °C for the second.

First: O=C(NC/C=C\COc1cc(CN2CCCCC2)ccn1)c1ccc(Cl)s1
Second: CS(=O)(=O)c1cc(CCC(=O)O)nc(-c2nc(=O)c3ccc(Cl)cc3s2)c1
The melting point of the first is lower: 75 to 77 °C for the first, 229 °C for the second.

First: Cc1ccsc1C=C(O)C(=O)O
Second: O=C(O)C=CC(=O)c1ccc(F)cc1
The melting point of the first is higher: 184 to 185 °C for the first, 130 to 132 °C for the second.

Compared with NC(=O)N1C(=O)C(=C(OC(=O)c2ccc(C(=O)OCc3ccccc3)cc2)c2cccs2)c2cc(F)c(Cl)cc21, O=C(O)CN(CC(=O)O)c1cc(OCCCCCCCCCCCCOc2ccccc2)cc(OCCCCCCc2cccc(O)c2O)c1 is lower in melting point: 212 to 218 °C for the first, 129 to 131 °C for the second.

Compared with CCCn1cc2c(C3C(=O)Nc4ccc(Br)cc43)nc(NCc3ccncc3)nc2n1 (stereo unspecified), Cn1c(C(=O)c2ccc(Cc3ccc(F)cc3)o2)c(O)c(=O)n1C is lower in melting point: greater than 300 °C for the first, 110 to 111 °C for the second.

First: CSc1c(N)nc(N2CCOCC2)nc1Cl
Second: CN(C(=O)c1ccc2nonc2c1)C1CCSCC1
The melting point of the first is lower: 115 °C for the first, 155 to 156 °C for the second.

CC(=O)c1cc(-c2c(C)c(NC(=O)CC(C)(C)C)c(C)c3c2OCC3c2ccc(C(C)C)cc2)cs1 (stereo unspecified) gave a melting point of 133 to 134 °C.
